We go through 3 compounds from US20080275133A1, “Local Administration of Retinoids to Treat Deficiencies in Dark Adaptation” (University Of Calfornia-San Francisco, priority 2004, published 2008).

One data set has as its system Dark adaptation. Conditions: for Night driving ability: one week later. How it is done: A patient complains of difficulty driving at night, especially in going from a well-lit to a poorly-illuminated environment. […] One cc of Vitamin A and/or one of its visual pigment derivatives in a sustained release suspension is injected retrobulbarly on both sides. […] Six months later, the retrobulbar injections are repeated.
A patient complains of difficulty driving at night, especially in going from a well-lit to a poorly-illuminated environment. […] The patient has a cataract in the right eye and cataract surgery with an intraocular lens is performed. At the time of surgery, a small pellet of concentrated vitamin A and/or one of its visual pigment derivatives is placed in the eye for sustained release.

The conditions of data set [1]: chronic high dose oral (liver damage, osteoporosis, promotion of lung cancer in smokers); cited from earlier work.
Data set [2] has as its system Dark adaptation abnormalities. Conditions: Sorsby's fundus dystrophy patients, high dose oral, for as little as 1 week; cited from earlier work.
The conditions of data set [3]: cited from earlier work.

SMILES strings stand for the structures. Where two headings read alike, the source gives them in different places.

With `CC1=C(/C=C/C(C)=C/C=C/C(C)=C/CO)C(C)(C)CCC1` [Vitamin A, (2E,4E,6E,8E)-3,7-dimethyl-9-(2,6,-trimethylcyclohex-1-en-1-yl)nona-2,4,6,8-tetraen-1-ol], the Night driving ability entry with Dark adaptation (Example 1: patient, one cc sustained release suspension retrobulbarly on both sides) is reported as “drives without difficulty at night”; in the data set on Dark adaptation (Example 2: patient, small sustained release pellet placed in the eye at cataract surgery), “drives without difficulty at night”. The “Duration of delivery in effective concentrations to the retina” value in the data set with Dark adaptation (human, in vivo) was 0.5-3 years. In addition, the Systemic toxicity result in data set [1] is given as “associated systemic toxicity”. For the same compound, the Dark adaptation abnormalities entry in data set [2] is listed as “rapidly normalize”.

On to `CC1=C(/C=C/C(C)=C/C=C/C(C)=C/C(=O)O)C(C)(C)CCC1` [all-trans-retinoic acid, retinoic acid], for which, in data set [3] (beta cyclodextrin inclusion complex formation (Lin et al., 2000)), the “Photostability with BCD inclusion complex” value is given as “increase the photostability”.

For `CC1=C(/C=C/C(C)=C/C=C/C(C)=C/C=O)C(C)(C)CCC1` [retinal], the “Shielding from oxygen by BCD inclusion complex” value in data set [3] (beta cyclodextrin inclusion complex (Lerner et al., 1989)) was “can shield retinal from oxygen”.
